Measurements reported in the supplement of paper PMC10307832.

What was measured:
Assay in all cases: relative viability (nuclei count vs DMSO), 5 days (fraction); higher = more cells survive
[1] = compound: O=c1[nH]cc(F)c(=O)[nH]1 [5-Fluorouracil] + C[C@@H](Oc1cc(-c2cnn(C3CCNCC3)c2)cnc1N)c1c(Cl)ccc(F)c1Cl [Crizotinib] (partner 1 µM)
In short: (§1)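 Lung cancer cell lines in 1536-well plates got either a single drug or a fixed anchor-drug dose together with five library-drug doses (not always all listed) in √10 steps, by pin tool, on the day after seeding. Nuclei were counted after 5 days, and relative viability is the treated-to-vehicle ratio of nuclei counts. Values are medians of duplicate plates.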

Staurosporine + Olaparib = compound: CN[C@@H]1C[C@H]2O[C@@](C)([C@@H]1OC)n1c3ccccc3c3c4c(c5c6ccccc6n2c5c31)C(=O)NC4 [Staurosporine] + O=C(c1cc(Cc2n[nH]c(=O)c3ccccc23)ccc1F)N1CCN(C(=O)C2CC2)CC1 [Olaparib] (partner 8 µM)
In short: as §1

[2] = compound: CN[C@@H]1C[C@H]2O[C@@](C)([C@@H]1OC)n1c3ccccc3c3c4c(c5c6ccccc6n2c5c31)C(=O)NC4 [Staurosporine] + N=C(N)NC(=N)NCCc1ccccc1 [Phenformin] (partner 250 µM)
In short: as §1

Sulindac + Pictilisib = compound: CC1=C(CC(=O)O)c2cc(F)ccc2/C1=C\c1ccc([S+](C)[O-])cc1 [Sulindac] + CS(=O)(=O)N1CCN(Cc2cc3nc(-c4cccc5[nH]ncc45)nc(N4CCOCC4)c3s2)CC1 [Pictilisib] (partner 1 µM)
In short: as §1

| Cell Line | relative viability ([1]; first compound 0.02 µM) | relative viability ([1]; first compound 0.2 µM) | relative viability ([1]; first compound 0.6325 µM) | relative viability ([1]; first compound 2 µM) | relative viability (Staurosporine + Olaparib; first compound 0.005 µM) | relative viability (Staurosporine + Olaparib; first compound 0.01581 µM) | relative viability (Staurosporine + Olaparib; first compound 0.05 µM) | relative viability (Staurosporine + Olaparib; first compound 0.1581 µM) | relative viability (Staurosporine + Olaparib; first compound 0.5 µM) | relative viability ([2]; first compound 0.005 µM) | relative viability ([2]; first compound 0.01581 µM) | relative viability ([2]; first compound 0.05 µM) | relative viability ([2]; first compound 0.1581 µM) | relative viability ([2]; first compound 0.5 µM) | relative viability (Sulindac + Pictilisib; first compound 0.08 µM) | relative viability (Sulindac + Pictilisib; first compound 0.253 µM) | relative viability (Sulindac + Pictilisib; first compound 0.8 µM) | relative viability (Sulindac + Pictilisib; first compound 2.53 µM) | relative viability (Sulindac + Pictilisib; first compound 8 µM) |
| --- | --- | --- | --- | --- | --- | --- | --- | --- | --- | --- | --- | --- | --- | --- | --- | --- | --- | --- | --- |
| NCI-H1651 | 0.825 | 0.838 | 0.452 | 0.38 | 0.153 | 0.159 | 0.168 | 0.15 | 0.126 | 0.293 | 0.155 | 0.16 | 0.0842 | 0.0807 | 0.751 | 0.672 | 0.416 | 0.621 | 0.599 |
| NCI-H1666 | 0.94 | 0.406 | 0.366 | 0.344 | 0.682 | 0.567 | 0.583 | 0.476 | 0.432 | 0.495 | 0.567 | 0.518 | 0.262 | 0.201 |  | 0.442 | 0.318 | 0.392 | 0.56 |
| NCI-H1734 | 0.709 | 0.742 | 0.533 | 0.37 | 0.566 | 0.354 | 0.257 | 0.194 | 0.0713 | 0.348 | 0.179 | 0.153 | 0.116 | 0.107 | 0.466 | 0.498 | 0.413 | 0.48 | 0.515 |
| NCI-H1755 | 0.838 | 0.655 | 0.313 | 0.258 | 0.731 | 0.421 | 0.25 | 0.236 | 0.234 | 0.384 | 0.24 | 0.196 | 0.195 | 0.161 | 0.434 | 0.419 | 0.304 | 0.362 | 0.507 |
| NCI-H1792 | 1.07 | 0.943 | 0.31 | 0.164 | 0.147 | 0.0705 | 0.0822 | 0.097 | 0.0652 | 0.255 | 0.0732 | 0.0598 | 0.0859 | 0.0427 | 0.286 | 0.294 |  | 0.231 | 0.313 |
| NCI-H1915 | 0.819 | 0.949 | 0.824 | 0.619 | 0.214 | 0.124 | 0.159 | 0.0952 | 0.0708 | 0.332 | 0.087 | 0.181 | 0.0813 | 0.0841 | 0.975 | 0.927 | 0.761 | 0.887 | 1.05 |
| NCI-H1944 | 0.993 | 0.92 | 0.392 | 0.193 | 0.38 | 0.226 | 0.284 | 0.273 | 0.261 | 0.19 | 0.11 | 0.141 | 0.102 | 0.0775 | 0.345 | 0.347 | 0.325 | 0.342 | 0.388 |
| NCI-H1975 | 1 | 1.01 | 0.429 | 0.263 | 0.306 | 0.225 | 0.165 | 0.107 | 0.104 | 0.208 | 0.135 | 0.136 | 0.103 | 0.0912 | 0.301 | 0.28 |  | 0.282 | 0.286 |
| NCI-H1993 | 0.773 | 0.839 | 0.645 | 0.622 | 0.941 | 0.73 | 0.717 | 0.497 | 0.313 | 0.507 | 0.408 | 0.463 | 0.455 | 0.421 | 0.827 | 0.787 | 0.769 | 0.732 | 0.927 |
| NCI-H2009 | 1.12 | 0.989 | 0.765 | 0.646 | 0.532 | 0.248 | 0.0909 | 0.112 | 0.0765 | 0.207 | 0.188 | 0.216 | 0.131 | 0.0831 | 1.04 | 0.8 | 0.788 | 0.71 | 0.932 |
| NCI-H2023 | 0.621 | 0.189 | 0.105 | 0.106 | 0.265 | 0.192 | 0.117 | 0.0758 | 0.0558 | 0.214 | 0.16 | 0.128 | 0.0907 | 0.0615 | 0.27 | 0.213 | 0.249 | 0.222 | 0.234 |
| NCI-H2085 | 0.962 | 1.01 | 0.756 | 0.636 | 0.694 | 0.471 | 0.556 | 0.398 | 0.344 |  | 0.197 | 0.312 | 0.151 | 0.174 | 0.459 | 0.415 | 0.433 | 0.377 | 0.447 |
| NCI-H2087 | 0.921 | 0.817 | 0.541 | 0.509 | 0.48 | 0.414 | 0.217 | 0.0849 | 0.0689 | 0.364 | 0.214 | 0.14 | 0.0795 | 0.0731 | 0.951 | 0.783 | 0.622 | 0.916 | 0.984 |
| NCI-H2126 | 0.962 | 0.528 | 0.341 | 0.307 | 0.89 | 0.634 | 0.62 | 0.468 | 0.4 | 0.483 | 0.245 | 0.336 | 0.237 | 0.245 | 0.46 | 0.498 | 0.462 | 0.497 | 0.479 |
| NCI-H2170 | 1.28 | 1.1 | 0.608 | 0.468 | 0.617 |  | 0.455 | 0.223 | 0.165 | 0.364 |  | 0.354 | 0.14 | 0.157 | 0.274 | 0.288 | 0.291 | 0.294 | 0.322 |
| NCI-H2228 | 0.441 | 0.483 | 0.457 | 0.343 | 0.375 | 0.211 | 0.18 | 0.0961 | 0.0588 | 0.254 | 0.166 | 0.11 | 0.0655 | 0.0891 | 0.488 | 0.407 | 0.244 | 0.383 | 0.603 |
| NCI-H2347 | 0.78 | 0.534 | 0.563 | 0.479 | 0.481 | 0.319 | 0.39 | 0.371 | 0.292 | 0.269 | 0.253 | 0.201 | 0.216 | 0.165 | 0.298 | 0.637 | 0.503 | 0.6 | 0.509 |
| NCI-H2405 | 0.871 | 0.954 | 0.797 | 0.579 | 0.204 | 0.179 | 0.14 | 0.122 | 0.0873 | 0.326 | 0.162 | 0.117 | 0.0864 | 0.0856 | 0.548 | 0.459 | 0.438 | 0.407 | 0.603 |
| NCI-H3122 | 0.252 | 0.274 | 0.232 | 0.215 | 0.575 |  | 0.481 |  | 0.281 | 0.283 |  | 0.335 | 0.12 | 0.0915 | 0.675 | 0.602 | 0.592 | 0.627 | 0.621 |
| PC-3 [JPC-3] | 0.989 | 0.996 | 0.882 | 0.676 | 1.03 | 0.603 | 0.569 | 0.385 | 0.332 |  | 0.394 | 0.352 | 0.247 | 0.181 | 0.886 | 0.81 | 0.55 | 0.753 | 0.857 |
| PC-14 | 0.899 | 0.928 | 0.788 | 0.456 | 0.147 | 0.0797 | 0.042 | 0.0556 | 0.043 | 0.26 | 0.129 | 0.0894 | 0.0651 | 0.0636 | 0.83 | 0.65 |  | 0.73 | 0.757 |
| RERF-LC-KJ | 0.867 | 0.841 | 0.849 | 0.665 | 0.726 | 0.537 | 0.304 | 0.228 | 0.188 | 0.209 | 0.269 | 0.225 | 0.241 | 0.229 | 0.57 | 0.626 |  | 0.473 | 0.579 |
| SK-LU-1 | 0.98 | 0.977 | 0.918 | 0.74 | 0.337 | 0.172 | 0.156 | 0.128 | 0.13 | 0.235 | 0.111 |  | 0.0994 | 0.0726 | 0.582 | 0.592 |  | 0.49 | 0.703 |
| SK-MES-1 | 1.01 | 0.743 | 0.368 | 0.319 | 0.299 | 0.192 | 0.158 | 0.132 | 0.156 | 0.345 | 0.267 | 0.185 | 0.132 | 0.219 | 0.368 | 0.427 | 0.323 | 0.362 | 0.459 |
| SW 1573 | 0.824 | 0.899 | 0.778 | 0.463 | 0.189 | 0.124 | 0.121 | 0.0899 | 0.063 | 0.201 | 0.156 | 0.0959 | 0.101 | 0.0586 | 0.508 | 0.632 | 0.451 | 0.511 | 0.605 |
